≈ marks a conversion by molar mass, not a printed value. Like-named read-outs stand apart in the source and are kept apart here.
Legend:
[1] = cited from earlier work
[2] = Screening stress test study on separate reference solutions and a mix solution; format: physicochemical
Experimental: Stress studies were performed on the separated reference solutions and a mix solution under heat (60°C for 24 h), and under acidic, basic, or oxidative (H2O2) conditions, and ICH light (700 W/m^2 for 8 h) conditions.

[3] = Second wave of solubility testing with acidified vehicles and combinations; format: physicochemical; details: 40% (w/v) HP-3-cyclodextrin + 38.4 mg/mL citric acid, pH2.0, compared to similar solution containing only 20% (w/v) HP-3-cyclodextrin
Experimental: Based on the outcome of these solubility tests, a second wave of solubility testing was performed, with acidified vehicles and combinations thereof.
The highest solubility was obtained in 40% (w/v) HP-3-cyclodextrin + 38.4 mg/mL citric acid, pH2.0, for both APIs (Active Pharmaceutical Ingredients). The marginal increase in solubility in this vehicle, compared to similar solution containing only 20% (w/v) HP-3-cyclodextrin is only -20% for 5-HTP and -40% for carbidopa. Therefore, and since dosing of HP-3-cyclodextrin is limited to about 8 - 16 g/day (for max. 14 days, short-term Phase I studies), it was foreseen to use the vehicle containing only 20% HP-b-cyclodextrin as the first choice for dosing safety reasons, i.e.: • for a 600 mg 5-HTP/60 mg carbidopa dose with a 30 mg/mL 5-HTP/3 mg/mL carbidopa solution in solvent A (40% HP-β-CD), 20 mL solution is required, corresponding with an intake of 8 g HP-β-CD, and; • for a 600 mg 5-HTP/60 mg carbidopa dose with a 30 mg/mL 5-HTP/3 mg/mL carbidopa solution in solvent B (20% HP-β-CD), 20 mL solution is required, corresponding with an intake of only 4 g HP-β-CD.

[4] = UV-measured solubility of 5-HTP and carbidopa; format: physicochemical
Experimental: The individual solubility of 5-HTP and carbidopa was assessed and compared to the data in the literature.
Table 2. Solubility results

[5] = separate solution, ICH light (700 W/m^2 for 8 h)
[6] = separate solution, acidic conditions, immediate, no further degradation after 24 h
[7] = separate solution, basic medium, after 24 h
[8] = separate solution, heat (60°C for 24 h)
[9] = separate solution, oxidative (H2O2) stress, T0 and T24h
[10] = 0.1N HCl, simulated gastric fluid, 0.1N HCI
[11] = 5% Soluplus in water, aqueous with cosolvent or surfactant or cyclodextrin
[12] = 10% w/v M-β-cyclodextrin in water (Kleptose crysmeb), aqueous with cosolvent or surfactant or cyclodextrin
[13] = 20% w/v HP-β-cyclodextrin in water (Kleptose), aqueous with cosolvent or surfactant or cyclodextrin, 20% w/v HP-β-cydodextrin in water (Kleptose)
[14] = Ethanol, organic solvent or mixture
[15] = Kolliphor RH40 (5% in water), aqueous with cosolvent or surfactant or cyclodextrin
[16] = PEG400, organic solvent or mixture
[17] = Polysorbate 20 (5% in water), aqueous with cosolvent or surfactant or cyclodextrin
[18] = Propylene glycol, organic solvent or mixture
[19] = Sepiclear (5% in water), aqueous with cosolvent or surfactant or cyclodextrin
[20] = Solutol HS15 (5% in water), aqueous with cosolvent or surfactant or cyclodextrin
[21] = Transcutol HP, organic solvent or mixture
[22] = oil or lipid, Labrafac lipophile, accurate measurement not possible due to diverging spectrum
[23] = oil or lipid, Sunflower oil, accurate measurement not possible due to diverging spectrum
[24] = pH 5, aqueous buffer, Phosphate buffer, pH5
[25] = pH 6.8, aqueous buffer, Phosphate buffer, pH6.8
[26] = pH 9, aqueous buffer, Phosphate buffer, pH9

| SMILES | solubility ([1]; Water) | degradation [2, 5] | degradation [2, 6] | degradation [2, 7] | degradation [2, 8] | degradation [2, 9] | marginal increase in solubility [3] [%] | solubility [4, 10] [mg/mL] | solubility [4, 11] [mg/mL] | solubility [4, 12] [mg/mL] | solubility [4, 13] [mg/mL] | solubility [4, 14] [mg/mL] | solubility [4, 15] [mg/mL] | solubility ([4]; Labrasol ALF, oil or lipid) [mg/mL] | solubility [4, 16] [mg/mL] | solubility [4, 17] [mg/mL] | solubility [4, 18] [mg/mL] | solubility [4, 19] [mg/mL] | solubility [4, 20] [mg/mL] | solubility [4, 21] [mg/mL] | also measured |
| --- | --- | --- | --- | --- | --- | --- | --- | --- | --- | --- | --- | --- | --- | --- | --- | --- | --- | --- | --- | --- | --- |
| N[C@@H](Cc1c[nH]c2ccc(O)cc12)C(=O)O [5-HTP, (2S)-2-amino-3-(5-hydroxy-1H-indol-3-yl)propanoic acid] | 1 - 10^(1) mg/mL | about 15% | not sensitive | about 15% | not sensitive | not sensitive | -20 | 29.4 (≈ 133 mM) | 12.4 (≈ 56.3 mM) | 13.5 (≈ 61.3 mM) | 17 (≈ 77.2 mM) | 5.1 (≈ 23.2 mM) | 9.5 (≈ 43.1 mM) | 4.8 (≈ 21.8 mM) | 2.3 (≈ 10.4 mM) | 9.4 (≈ 42.7 mM) | 35.4 (≈ 161 mM) | 14.5 (≈ 65.8 mM) | 9 (≈ 40.9 mM) | 13.7 (≈ 62.2 mM) | degradation ([2]; mix solution of 5-HTP and carbidopa, all stress conditions): mainly light and acidic stress influenced the degradation; solubility [4, 22]: < 10 mg/mL; solubility [4, 23]: < 10 mg/mL; solubility [4, 24]: 8.4 mg/mL (≈ 38.1 mM); solubility [4, 25]: 8.9 mg/mL (≈ 40.4 mM); solubility [4, 26]: 9.3 mg/mL (≈ 42.2 mM) |
| C[C@@](Cc1ccc(O)c(O)c1)(NN)C(=O)O [Carbidopa, (2S)-3-(3,4-dihydroxyphenyl)-2-hydrazinyl-2-methylpropanoic acid] | 1 - 10 ^(2) mg/mL | about 88% | more than 20% | about 30% | 90% | did not influence | -40 | 11.8 (≈ 52.2 mM) | 12.9 (≈ 57 mM) | 2.8 (≈ 12.4 mM) | 3.1 (≈ 13.7 mM) | 0.07 (≈ 0.309 mM) | 1.5 (≈ 6.63 mM) | 12.8 (≈ 56.6 mM) | 1.5 (≈ 6.63 mM) | 1.4 (≈ 6.19 mM) | 15 (≈ 66.3 mM) | 3.1 (≈ 13.7 mM) | 1.4 (≈ 6.19 mM) | 0.6 (≈ 2.65 mM) | solubility ([1]; 3N HCI): 100 - 1000 ^(3) mg/mL; solubility ([1]; Acetone): < 0.1 ^(3) mg/mL; solubility ([1]; Chloroform): < 0.1 ^(2) mg/mL; solubility ([1]; Ethanol): 0.1 - 1 ^(2) mg/mL; solubility ([1]; Ether): < 0.1 ^(3) mg/mL; solubility ([1]; Methanol): 1 - 10 ^(3) mg/mL; solubility ([1]; Methylene chloride): < 0.1 ^(3) mg/mL; stability in solution ([2]; stress studies, overall): very unstable in solution and is quickly degraded; solubility [4, 22]: < 10 mg/mL; solubility [4, 23]: < 10 mg/mL; solubility [4, 24]: 1.5 mg/mL (≈ 6.63 mM); solubility [4, 25]: 2.1 mg/mL (≈ 9.28 mM); solubility [4, 26]: 4.7 mg/mL (≈ 20.8 mM) |
